Columns and labels:
[1] = iv PK mice; conditions: female, mouse, in vivo
From the text: Other studies including, but not limited to, CaCO2 permeability, metabolite profiling in human microsomes (Syneos 7007703.SA.186) and in human hepatocytes (Syneos 7007703.SA.185), metabolite M3b structural elucidation (Syneos 7007703.SA.186), mouse iv female (ODS CFH-1798), mouse iv+ABT females (ODS CFH 1799), mouse topical d1,d10 (ODS Study Number: NBK39-32, 12 Sep. 2019, ELN Bioanalysis study: NBK156-79), rat iv (Pharmaron PH-DMPK-GAL-20-002), dog topical d1, d10 (CRL FY19.085) and minipig topical PK dl, d7 (Pharmaron 92404-19-914) are also conducted using the standard protocols known in the art.

[2] = In vivo pharmacokinetic analysis in rat (iv); design: species or system male Wistar Han rat; conditions: iv 1 mg/kg
Procedure: One male Wistar Han rat. Compound was administered intravenously to fed animal at a target dose of 1 mg/kg, dose volume: 2 mL/kg, in DMSO/hydroxypropyl-beta-cyclodextrin 20% in phosphate buffer 60 mM pH 7 (5:95). Blood samples were collected at various time points. Blood samples were then assayed using a method based upon protein precipitation with acetonitrile followed by LC/MS/MS analysis. Non-compartmental methods were used for pharmacokinetic analysis of blood concentration versus time data

[3] = Kinetic aq sol; type: physicochemical
[4] = test system: 3T3 murine fibroblasts; assay: Phototoxicity (Neutral red uptake); type: cell-based; conditions: 3T3 fibroblasts, 7 J/cm2 UVA/UVB
Procedure: Phototoxicity was evaluated in 3T3 murine fibroblasts. Cells were incubated with different concentrations of test compounds. One plate was then exposed to a dose of 7 J/cm2 (UVA/UVB mimicking usual solar exposure) whereas the other plate was kept in the dark. The treatment medium was then replaced with culture medium and after 24 h cell viability was determined by Neutral red uptake. Concentration leading to 50% decrease of viability was calculated in the absence and in the presence of irradiation. The PIF (photo irritation factor) ratio was then calculated: […]).

[5] = test system: 44 targets; type: binding
Procedure: An in vitro pharmacology assay was conducted to assess the capability of the compounds to interact with different pharmacological targets when tested at 10 μM in different binding and enzyme/uptake assays. The included targets are indicative of potential effects in major organs and drug-drug interactions.
Compound binding was calculated as a % inhibition of the binding of a radioactively labelled ligand specific for each target. […] […].

[6] = Intrinsic clearance in hepatocytes, minipig; type: in vitro ADME, male Göttingen minipig; conditions: 2.5 μM
Procedure: The intrinsic clearance was assessed in cryopreserved Hepatocytes obtained by Human livers donors of mix gender pooled together, male balb-c mouse, male Wistar Han rats and male Göttingen minipig, by looking at the parent compound disappearance. The incubations were performed using a final concentration of viable cells of 1 million/ml (viability above 70%) and test item of 2.5 μM. Incubations were followed up to 2 h. Aliquotes were withdrawn at different time points and reaction quenched with acetonitrile. After centrifugation the supernatant was analyzed by HPLC/MS to quantify the remaining amount of parent in comparison with time 0. The clearance was calculated by fitting the log of the percentage remaining with Graphpad Prism ver.7.

[7] = test system: kinase panel (403); assay: Kinase selectivity S35 / S1 at 10 μM; type: binding
[8] = test system: p-STAT3Y705 in skin; assay: In vivo pharmacodynamy model: IL-6 induced Phospho-STAT3, topical; design: species or system BALB/c ByJ Rj mice; PD/IL6 mouse top @1 mM % vs Tofa: unit not given here; conditions: topical 1 mM, PG/EtOH 3/7

Compound: O=S(=O)(N[C@H]1C[C@@H](N2CCOc3cnc4[nH]ccc4c32)C1)C1CN(C2CC2)C1 [Compound E, 1-Cyclopropyl-N-((cis)-3-(2,3-dihydropyrrolo[3′,2′:5,6]pyrido[3,4-b][1,4]oxazin-1(7H)-yl)cyclobutyl)azetidine-3-sulfonamide]
- Vd [1]: 2.6 L/kg
- clearance ([1]; read-out: iv PK mice: Cl): 140 mL/min/kg
- half-life ([1]; read-out: iv PK mice: t½): 26.4 min
- iv PK rat: ER [2]: 67%
- clearance ([2]; male, Wistar Han, whole blood, read-out: iv PK rat: Cl): 52 mL/min/kg
- Vd ([2]; male, Wistar Han, whole blood, read-out: iv PK rat: Vd): 1.8 L/kg
- half-life ([2]; male, Wistar Han, whole blood, read-out: iv PK rat: t½ (converted)): 23.4 min
- Kinetic aq sol [3]: 225/ND/TBD microM
- Phototox [4]: Neg/Neg
- Safety panel (Cerep): 44 targets % inh @10 microM Nb of targets > 50% inh [5]: 2/44
- Safety panel (Cerep): targets > 50% inh ([5]; 10 μM): (H2 (antago)-alpha2A (antago))
- Intr. Clear. minipig heps [6]: 44 microL/min/10 6 cells
- Selectivity (S1): number of kinases out of panel [7]: 1/403
- PD/IL6 mouse top @1 mM % inh vs vehicle [8]: 63%
- PD/IL6 mouse top @1 mM % vs Tofa [8]: 0.97

— US12583868B2, “JAK inhibitors and methods for synthesizing and using thereof” (GALDERMA HOLDING SA, priority 2020, dated 2026)
